Data on 3 compounds can be found in article PMC6127930 (2018).

In the test the test system is oxytetracycline binding aptamer (OBA) (DNA, aptamer) CGTACGGAATTCGCTAGCACGTTGACGCTGGTGCCCGGTTGTGGTGCGAGTGTTGTGTGGATCCGAGCTCCACGTG
Kind of test: magnetic capture, UV-Vis of unbound at 368 nm. The following applies: 100 mM NaCl, 5 mM KCl, 2 mM MgCl2, 1 mM CaCl2, 20 mM Tris-HCl pH 7.6, room temperature, 2 h.

Consider `CN(C)[C@@H]1C(=O)C(C(N)=O)=C(O)[C@@]2(O)C(=O)C3=C(O)c4c(O)cccc4[C@@](C)(O)[C@H]3[C@H](O)[C@@H]12`, for which the binding entry (5 µM compound, 85 ± 2.8% captured) is reported as “yes”.

On to `O=C(O)Cc1ccccc1Nc1c(Cl)cccc1Cl`, for which the binding entry (tested at 5 µM, 8.7 ± 3.7% non-specifically adsorbed) was “no”.

`COc1ccc2cc([C@H](C)C(=O)O)ccc2c1`: the binding entry (tested at 5 µM, 9.0 ± 1.3% non-specifically adsorbed) is given as “no”.
